We go through 2 compounds from patent US20240174649A1, “CULLIN-RING E3 UBIQUITIN LIGASE 4 INHIBITOR COMPOUNDS AND METHODS OF THEIR USE” (ICAHN SCHOOL OF MEDICINE AT MOUNT SINAI, priority 2021, published 2024).

One series addresses E3 CRL4^CRBN (Homo sapiens (Human), UniProt Q13619). The series is described as follows: Lenalidomide-dependent ubiquitination of CK1α by CRL4^CRBN. The format is biochemical. How it is done: To prepare Flag-CK1α as a substrate for ubiquitination experiments described in FIGS. 2A-E, the expression vector (purchased from Addgene) was introduced to HEK-293T cells by transfection using Lipofectamine RNAIMAX (ThermoFisher) according to manufacturer's protocols. Cell extracts were prepared and the concentration of Flag-CK1α was determined using immunoblot analysis with purified GST-CK1α (Sigma) as a standard. Typically, 50-100 μl of extracts was used to attach to ˜15 μl of M2 beads (Sigma) at 4° C. for 2 hours. Unbound materials were removed by washing (first three times with a washing buffer containing 50 mM Tris-HCl, pH8.0, 1% Triton X-100, 0.5M NaCl, and then twice with buffer A plus 50 mM NaCl) and the resulting beads were used in the ubiquitination assay (15 μl). The concentration of Flag-CK1α was determined to be ˜100 nM.
Immobilized, Flag-CK1α-containing beads were initially incubated with a reaction mixture (10 μl) containing 50 mM Tris-HCl (pH7.4), 0.5 mM DTT, 0.1 mg/ml of BSA, 5 mM MgCl2, 100 nM CRL4^CRBN, 1 μM Lenalidomide (Selleckchem), 1 μM Fluorescein-Ub, 100 nM E1, and 1 μM UbcH5c. ATP (20 mM) was added last to initiate the reaction. The reaction was incubated on a thermomixer (1,300 rpm; Eppendorf) at 37° C. for 5 min. The resulting beads were then added with a second reaction mixture (5 μl) containing 50 mM Tris-HCl (pH7.4), 0.5 mM DTT, 0.1 mg/ml of BSA, 5 mM MgCl2, 4 μM I-Ub-Q31C/K48R, and 1 μM Cdc34b, in the presence or absence of E3 inhibitors as specified. The reaction was incubated on a thermomixer at 37° C. for times as indicated. The concentrations of enzymes, Ubs, and compounds stated above were adjusted based on a final volume of 15 μl. The beads were then washed using conditions as described above. Materials eluted from the beads were separated by 4-20% SDS-PAGE followed by detection with fluorescence scanning (Typhoon 9500) or immunoblot using anti-CK1α antibody (Abcam). […]

For another series, the target named is ROC1-CUL1 (Homo sapiens (Human), UniProt Q13616). The series is described as follows: Gel-based di-Ub synthesis. The format is biochemical. As for the experimental part: For the experiment shown in FIG. 7 and FIGS. 8A-B, the di-Ub synthesis reaction was carried out by preassembling the donor Ub mix. The donor Ub mixture (5 μl) contained 50 mM Tris HCl (pH 7.4), 5 mM MgCl2, 2 mM ATP, 0.5 mM DTT, 0.1 mg/mL BSA, 1 μM Ub-NC-I555, 0.1 μM E1, and 2 μM Cdc34b. The reaction was incubated for 5 min at 37° C. Compounds, in the amounts indicated, were added followed by the addition of ROC1-CUL1 (or related E3 subcomplex) in amounts as indicated and 10 μM PK-Ub (1-74) (as a receptor). The final volume was adjusted to 10 μl. The reaction was incubated for 10 min at 37° C.
ROC1-CUL1, sequence (Q13616 whole entry): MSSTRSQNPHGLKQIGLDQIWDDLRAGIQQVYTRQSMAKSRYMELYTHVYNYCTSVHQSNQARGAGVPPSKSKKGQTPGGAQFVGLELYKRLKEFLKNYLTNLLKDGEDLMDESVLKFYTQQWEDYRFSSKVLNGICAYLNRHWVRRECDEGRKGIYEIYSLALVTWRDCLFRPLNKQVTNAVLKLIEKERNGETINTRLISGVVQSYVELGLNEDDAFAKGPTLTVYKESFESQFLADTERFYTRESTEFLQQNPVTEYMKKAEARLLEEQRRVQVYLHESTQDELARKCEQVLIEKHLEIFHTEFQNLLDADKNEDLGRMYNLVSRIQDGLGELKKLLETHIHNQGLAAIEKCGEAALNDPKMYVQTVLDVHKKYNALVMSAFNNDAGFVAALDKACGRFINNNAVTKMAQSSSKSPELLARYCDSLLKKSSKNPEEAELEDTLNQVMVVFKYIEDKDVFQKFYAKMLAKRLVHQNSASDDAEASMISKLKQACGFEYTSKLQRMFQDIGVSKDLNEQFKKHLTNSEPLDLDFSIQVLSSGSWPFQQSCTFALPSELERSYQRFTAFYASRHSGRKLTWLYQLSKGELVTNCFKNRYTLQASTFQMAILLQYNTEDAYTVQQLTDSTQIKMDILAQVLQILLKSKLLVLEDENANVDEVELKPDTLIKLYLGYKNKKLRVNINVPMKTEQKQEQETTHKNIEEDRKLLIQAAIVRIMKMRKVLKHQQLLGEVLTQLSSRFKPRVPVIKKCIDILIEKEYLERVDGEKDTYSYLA
ROC1-CUL1, sequence (P62877 whole entry partner): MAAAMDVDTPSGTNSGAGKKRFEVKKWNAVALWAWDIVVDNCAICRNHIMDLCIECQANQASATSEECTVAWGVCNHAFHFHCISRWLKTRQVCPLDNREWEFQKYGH
For the experiments shown in FIG. 8C and FIG. 9, the reaction was assembled in a 10-μl mixture containing 50 mM Tris HCl (pH 7.4), 5 mM MgCl2, 0.5 mM DTT, 0.1 mg/mL BSA, 0.05 μM Ub-NC-I555, 2,5 μM PK-Ub (1-74), 0.1 μM E1, 1 μM Cdc34b, and 80 nM ROC1-CUL1 with or without compound. The reaction was initiated by the addition of 2 mM ATP. The products were separated by 4-20% SDS/PAGE and were visualized and quantified on a Typhoon FLA 9500 laser scanner (GE).

Another series concerns cancer cells. Kind of series: Apoptosis, Annexin V flow cytometry. The format is cell-based. Summed up:
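5×10^4 cells were seeded 24 h before treatment, then cultured with compound for 48 h. Pelleted cells were washed in Annexin V binding buffer (HEPES pH 7.4, with CaCl2) and stained in the dark with Annexin V-FITC (2 μg/ml) for 5 min. Apoptosis was read by flow cytometry.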

A further series relates to CACO-2. The series is described as follows: CACO-2 permeability. The settings on record: for PGP substrate: PGP-transporter (MDR1). Format: in vitro ADME. As for the experimental part: ADME studies on compounds #33-11 and KH-4-43 for “absorption, distribution, metabolism, and excretion” were carried out at CRO, BioDuro. Kinetic solubility, plasma and microsome stability in rat, mouse and human, as well as Caco-2 Permeability were examined.
In general terms: Passage across Caco-2 layers is used to estimate intestinal permeability.

The next series is described as follows: Mouse i.p. PK. The format is in vivo.
A short description of series [1]: End-of-study PK in MV4-11 xenograft mice. The format is in vivo. The settings on record: mouse. How it is done:
Tumor tissues were weighed at the end of study. At the endpoint, 100 μl blood and tumors from Group 3 (G3) and Group 4 (G4) were collected as shown in the Table 3, for further pharmacokinetics or biomarker analysis. Plasma were isolated from all blood samples.

In the next series the test system is MV4-11 tumors. Kind of series: AML MV4-11 subcutaneous xenograft. The settings on record: for tumor inhibition value: IP.

E3 CRL4^CRBN, sequence (Q13619 whole entry): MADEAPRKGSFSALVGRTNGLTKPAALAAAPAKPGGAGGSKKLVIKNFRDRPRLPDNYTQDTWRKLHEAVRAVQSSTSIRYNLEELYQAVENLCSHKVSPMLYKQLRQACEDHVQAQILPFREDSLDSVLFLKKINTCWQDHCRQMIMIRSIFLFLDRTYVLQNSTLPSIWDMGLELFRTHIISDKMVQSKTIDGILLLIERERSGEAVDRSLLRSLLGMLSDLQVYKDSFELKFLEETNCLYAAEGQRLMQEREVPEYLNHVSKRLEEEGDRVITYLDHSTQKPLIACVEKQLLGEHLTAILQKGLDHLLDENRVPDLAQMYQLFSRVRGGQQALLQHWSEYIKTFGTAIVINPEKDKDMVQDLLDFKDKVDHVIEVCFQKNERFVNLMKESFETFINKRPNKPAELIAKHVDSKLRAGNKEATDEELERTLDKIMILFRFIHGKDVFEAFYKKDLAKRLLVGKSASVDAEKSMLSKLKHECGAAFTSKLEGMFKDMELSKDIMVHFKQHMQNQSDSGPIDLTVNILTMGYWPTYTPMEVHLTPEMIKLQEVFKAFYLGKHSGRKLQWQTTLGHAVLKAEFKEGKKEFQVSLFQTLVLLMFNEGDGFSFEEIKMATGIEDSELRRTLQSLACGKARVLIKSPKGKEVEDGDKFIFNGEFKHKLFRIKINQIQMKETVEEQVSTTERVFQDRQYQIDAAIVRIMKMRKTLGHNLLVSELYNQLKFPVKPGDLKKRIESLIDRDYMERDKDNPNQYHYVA
E3 CRL4^CRBN, sequence (P62877 whole entry partner): as the sequence (P62877 whole entry partner) above
E3 CRL4^CRBN, sequence (Q16531 whole entry partner): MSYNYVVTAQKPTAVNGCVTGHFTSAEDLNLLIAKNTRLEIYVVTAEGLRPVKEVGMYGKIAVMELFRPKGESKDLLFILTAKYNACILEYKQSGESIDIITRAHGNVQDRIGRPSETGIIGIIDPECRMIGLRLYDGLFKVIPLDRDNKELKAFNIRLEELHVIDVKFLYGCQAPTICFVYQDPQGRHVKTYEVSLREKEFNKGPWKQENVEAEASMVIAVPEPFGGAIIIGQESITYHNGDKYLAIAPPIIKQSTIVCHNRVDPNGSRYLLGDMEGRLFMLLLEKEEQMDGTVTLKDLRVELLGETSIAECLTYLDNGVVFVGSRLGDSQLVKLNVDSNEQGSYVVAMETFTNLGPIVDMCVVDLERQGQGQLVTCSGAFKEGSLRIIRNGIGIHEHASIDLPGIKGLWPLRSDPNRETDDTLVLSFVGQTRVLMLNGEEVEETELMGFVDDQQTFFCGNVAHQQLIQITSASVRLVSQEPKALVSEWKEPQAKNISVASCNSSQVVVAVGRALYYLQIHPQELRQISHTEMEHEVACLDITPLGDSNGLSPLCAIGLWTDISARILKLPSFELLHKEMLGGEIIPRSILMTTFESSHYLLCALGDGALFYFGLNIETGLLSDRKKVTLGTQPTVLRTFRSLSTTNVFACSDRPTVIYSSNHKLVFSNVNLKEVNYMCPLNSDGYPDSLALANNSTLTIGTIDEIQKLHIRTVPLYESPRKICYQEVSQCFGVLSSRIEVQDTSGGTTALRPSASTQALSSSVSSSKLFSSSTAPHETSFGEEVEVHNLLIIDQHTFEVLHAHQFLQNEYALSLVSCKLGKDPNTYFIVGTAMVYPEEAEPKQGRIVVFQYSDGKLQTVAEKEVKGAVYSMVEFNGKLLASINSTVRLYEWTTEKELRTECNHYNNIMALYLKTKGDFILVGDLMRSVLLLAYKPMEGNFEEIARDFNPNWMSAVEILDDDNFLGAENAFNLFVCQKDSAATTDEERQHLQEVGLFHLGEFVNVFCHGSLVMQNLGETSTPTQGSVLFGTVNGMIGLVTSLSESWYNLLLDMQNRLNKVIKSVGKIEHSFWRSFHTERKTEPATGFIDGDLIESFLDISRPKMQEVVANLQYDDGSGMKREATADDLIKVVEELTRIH
E3 CRL4^CRBN, sequence (Q96SW2 whole entry partner): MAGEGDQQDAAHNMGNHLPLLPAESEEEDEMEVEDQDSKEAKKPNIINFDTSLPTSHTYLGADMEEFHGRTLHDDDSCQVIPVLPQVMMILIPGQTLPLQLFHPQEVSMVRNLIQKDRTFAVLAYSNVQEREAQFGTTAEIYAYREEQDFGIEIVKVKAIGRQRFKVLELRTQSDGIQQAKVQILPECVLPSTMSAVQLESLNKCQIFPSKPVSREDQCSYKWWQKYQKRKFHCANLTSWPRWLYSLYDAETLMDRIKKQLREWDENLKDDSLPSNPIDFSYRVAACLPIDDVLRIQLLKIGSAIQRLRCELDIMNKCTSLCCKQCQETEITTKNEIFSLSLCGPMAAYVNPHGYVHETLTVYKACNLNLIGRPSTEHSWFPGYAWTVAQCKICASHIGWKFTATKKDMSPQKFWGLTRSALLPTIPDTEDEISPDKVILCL

As a reminder, the EC50 is the concentration needed to bring the measured effect to its halfway point. Take `O=c1c(-c2cnn(-c3ccccc3)c2)c(C(F)(F)F)oc2c(O)c(O)ccc12` [#33-11, 7,8-dihydroxy-3-(1-phenyl-1H-pyrazol-4-yl)-2-(trifluoromethyl)-4H-chromen-4-one]: on E3 CRL4^CRBN (at 30 μM), the “inhibition of ubiquitination of CK1α” value is recorded as “Significant inhibitory effects”. At ROC1-CUL1 (up to 150 μM), the “level of di-Ub product” value is given as “remained almost unchanged”. Besides, the EC50 in the series on cancer cells (Table 6) is 13 µM. In the series on CACO-2, the “A:B/B:A” value worked out at 1.95, the Permeability entry is “high” and the PGP substrate result is reported as “probable”. For the same compound, in the series “Mouse i.p. PK” (i.p. 100 mg/kg in DMSO), the Ctrough worked out at 160 nM and the T1/2 stood at 7.2 h. This compound gave an AUC in the series “Mouse i.p. PK” (i.p. 100 mg/kg in DMSO, 0-24 hr) of 19.6 μM-hr. Also, the AUC in series [1] (tumor, mice dosed with #33-11, read-out: AUC in tumors) turned out to be 0.75 µM·h. In addition, the tumor growth inhibition result in the series with MV4-11 tumors (earlier AML MV4-11 xenograft model study) is “did not reach statistically significant levels”.

Regarding `O=c1c(-c2cnn(-c3ccc(Cl)cc3)c2)c(C(F)(F)F)oc2c(O)c(O)ccc12` [KH-4-43, 3-(1-(4-chlorophenyl)-1H-pyrazol-4-yl)-7,8-dihydroxy-2-(trifluoromethyl)-4H-chromen-4-one], the “dose range inhibiting ubiquitination by CRL4” value on E3 CRL4^CRBN is approximately 10 µM. For the same compound, the “discharge of Cdc34-Ub and production of Ub2 by ROC1-CUL1” value at ROC1-CUL1 is listed as “no effect”. For the same compound, the EC50 in the series on cancer cells (Table 1) is 4 µM; with cancer cells (Table 6) it was 8 µM. For the same compound, in the series with CACO-2, the Permeability result was “highly permeable and high”. Further, in the series with CACO-2, the PGP substrate result is on record as “not a substrate”. The “24 hr C-trough concentration” value in “Mouse i.p. PK” (i.p. 100 mg/kg) amounted to 89 nM. Moreover, the tolerability result in “Mouse i.p. PK” (i.p. 100 mg/kg) is “well tolerated”. In “Mouse i.p. PK” (i.p. 100 mg/kg in DMSO), this compound came in with a Ctrough of 90 nM. For the same compound, the AUC in series [1] (BALB/c nude, plasma, ip, G3, 50 mg/kg Q2D, read-out: AUC over 24 hours in plasma) was approximately 3.3 µM·h; in series [1] (BALB/c nude, tumor, ip, G4, 50 mg/kg QD, read-out: AUC over 24 hours in tumor) it was approximately 4.7 µM·h. Moreover, in series [1] (in vivo), the “tumor AUC higher than with #33-11” value was found to be 6 fold. In addition, the tumor inhibition value worked out at 18.60% in the series with MV4-11 tumors (G2, 25 mg/kg, Q2D); 25.15% with MV4-11 tumors (G3, 50 mg/kg, Q2D); 38.90% in the series on MV4-11 tumors (G4, 50 mg/kg, QD). In the series with MV4-11 tumors (tested dose levels 25 and 50 mg/kg), the “safety by body weight loss guideline (>20% toxic)” value is “judged to be safe”.
